Paper PMC8998618, “A Pharmacokinetic and Metabolism Study of the TRPC6 Inhibitor SH045 in Mice by LC-MS/MS” (International Journal of Molecular Sciences, 2022)
Where two headings read alike, the source gives them in different places.

Experiment: tissue distribution after single and repeated administration
Type: in vivo, mice
Conditions: for concentration at 24 h: 20 mg/kg, mean ± SEM
Description: Via heparin-coated catheters a maximum of 50 µL blood was collected from the tail vein at 0.25, 0.5, 1, 2, 3, 4, 6, 8, or 24 h after administration and immediately centrifuged at 4000× g at 4 °C for 10 min. For repeated administration 20 mg/kg BW SH045 were administered at 8:00 a.m. on five consecutive days, once a day. Blood was taken 1 h and 24 h after drug administration. Tissue samples were harvested from isoflurane-euthanized animals at indicated time points. Mice were transcardially perfused with PBS and dissected tissues were washed to remove remaining blood. Plasma and tissue samples were stored at −80 °C until analysis. Urine was collected by bladder puncture at indicated time points.
For tissue analysis, homogenates (10% in phosphate-buffered saline, PBS) were prepared. Homogenate, plasma, and urine were mixed with IS and extracted with ice-cold ACN, centrifuged, filtered and stored in the autosampler at 6 °C until analysis in duplicates by LC-MS/MS (details in Supplementary Materials SM4).
Larixyl-N-methylcarbamate ((1S,4S,4aR,8aS)-4-((S)-3-hydroxy-3-methylpent-4-en-1-yl)-4a,8,8-trimethyl-3-methylenedeca-hydro-naphthalen-1-yl methylcarbamate, SH045, TRPC6 inhibitor) was synthesized as described by Häfner et al. [1]. (+)-Larixol (internal standard, IS) was isolated from Larix decidua turpentine [2]. Kolliphor® EL was obtained from Caelo (Hilden, Germany). Acetonitrile (ACN), water, and formic acid (LC -MS grade each) were purchased from Fisher Scientific (Schwerte, Germany). Testo sterone, 4-nitrophenol, β-nicotinamide adenine dinucleotide 2′ -phosphate reduced tetrasodium salt hydrate (β-NADPH), uridine 5′-diphosphoglucuronic acid ammonium salt (UDPGA), pilocarpine, ticlopidine, quercetin, sulfaphenazole, fluvoxamine, quinidine, 4-methyl pyrazole, ketoconazole, alamethicin and Dulbecco’s phosphate-buffered saline (DPBS, pH 7.4) were obtained from Merck (Darmstadt, Germany). Ciprofloxacin was purchased from Bayer AG (Leverkusen, Germany). Liver microsomes from mice (CD-1, male, MLM) and human (pooled: 50 donors, HLM) were obtained from Fisher Scientific (Gibco, protein concentration: 20 mg/mL respectively). Syringe filters (Phenex, regenerated cellulose, pore-size 0.2 μm) were purchased from Phenomenex (Aschaffenburg, Germany) and centrifugal filter units (30 kDa) from Merck Millipore […]
SM2 Quantification of SH045 by HPLC and tandem mass spectrometric methods (LC-MS/MS) In brief, chromatographic separation was achieved using a Zorbax Eclipse XDB-C8 column (100 × 3.0 mm, 3.5 μm 80 Å, Agilent Technologies) with linear gradient elution using water and ACN, each with 0.1 % formic acid as additive, during a total run time of 20 min. For quantification (+)-larixol was used as IS. MS detection was achieved by multiple reaction monitoring (MRM) scan mode for SH045 (m/z 364.3/289.3) and IS (m/z 307.2/151.2), respectively. Further conditions and parameters were set as reported previously [3]. Freshly prepared calibration samples for SH045 in plasma and tissue comprised eight concentration levels analyzed in duplicates (2, 5, 10, 100, 200, 800, 1200 and 1600 ng/mL). For metabolism studies in microsomes, SH045 was dissolved in pure DMSO. […]
All analyses for metabolite identification included comparative measurements of appropriate control samples in order to avoid false-positive results.
SM3 Histopathological examination of tissue repeatedly exposed to SH045 Liver, kidney and lung were collected after repeated administration for inspection for histopathological changes, fixed in 4% paraformaldehyde solution and embedded in paraffin. Tissue slices (6 µm) of three animals either of untreated controls or such assigned to repeated administration of SH045 were deparaffinized and hematoxylin and eosin-stained. At least 5 slices per animal and tissue were microscopically examined using a light microscope (Zeiss, […]
SM4 Preparation of samples for analysis of SH045 and its metabolites by LC-MS/MS […]

C=C[C@@](C)(O)CC[C@H]1C(=C)C[C@H](OC(=O)NC)[C@H]2C(C)(C)CCC[C@]12C [SH045, (1S,4S,4aR,8aS)-4-((S)-3-Hydroxy-3-methylpent-4-en-1-yl)-4a,8,8-trimethyl-3-methylenedecahydronaphthalen-1-yl methylcarbamate]
entry into the brain (20 mg/kg i.v.): entered the brain
drug accumulation in tissues after repeated administration (20 mg/kg i.v. five times once a day): no hints for drug accumulation
concentration at 24 h (male, C57BL/6, mouse, brain, iv, 24 h after repeated (5 days, once a day) 20 mg/kg BW i.v., read-out: Concentration, Brain): 19.6 ± 5.5 ng/g
concentration at 24 h (male, C57BL/6, mouse, brain, iv, 24 h after single (1×) 20 mg/kg BW i.v., read-out: Concentration, Brain): 14.8 ± 7.6 ng/g
concentration at 24 h (male, C57BL/6, mouse, fat, iv, 24 h after repeated (5 days, once a day) 20 mg/kg BW i.v., read-out: Concentration, Fat): 369 ± 50 ng/g
concentration at 24 h (male, C57BL/6, mouse, fat, iv, 24 h after single (1×) 20 mg/kg BW i.v., read-out: Concentration, Fat): 333 ± 61.2 ng/g
concentration at 24 h (male, C57BL/6, mouse, kidney, iv, 24 h after repeated (5 days, once a day) 20 mg/kg BW i.v., read-out: Concentration, Kidney): 17.8 ± 4.4 ng/g
concentration at 24 h (male, C57BL/6, mouse, kidney, iv, 24 h after single (1×) 20 mg/kg BW i.v., read-out: Concentration, Kidney): 14.8 ± 5.9 ng/g
concentration at 24 h (male, C57BL/6, mouse, liver, iv, 24 h after repeated (5 days, once a day) 20 mg/kg BW i.v., read-out: Concentration, Liver): 17.5 ± 4.6 ng/g
concentration at 24 h (male, C57BL/6, mouse, liver, iv, 24 h after single (1×) 20 mg/kg BW i.v., read-out: Concentration, Liver): 14.2 ± 5.2 ng/g
Kp (male, C57BL/6, mouse, lung, iv, 20 mg/kg BW, after i.v. administration, read-out: first-pass uptake into the lung relative to respective plasma concentration): ~20
concentration at 24 h (male, C57BL/6, mouse, lung, iv, 24 h after repeated (5 days, once a day) 20 mg/kg BW i.v., read-out: Concentration, Lung): 2390 ± 1020 ng/g
concentration at 24 h (male, C57BL/6, mouse, lung, iv, 24 h after single (1×) 20 mg/kg BW i.v., read-out: Concentration, Lung): 2170 ± 414 ng/g
